{
  "source": "patent US10934315B2",
  "about": "“Process for preparing bortezomib, intermediates, and crystalline forms thereof” (PHARMACORE BIOTECH CO., LTD., priority 2018, dated 2021)",
  "assay": "Stability test of crystalline form D of bortezomib in a sealed state at 0-10° C.",
  "type": "physicochemical",
  "conditions": "for Purity (%): HPLC purity",
  "protocol": "The crystalline form of bortezomib prepared in Example 2 was subjected to a stability test in a sealed state at a temperature of 0-10° C. for 3.5 months.",
  "data": [
    {"smiles": "CC(C)C[C@H](NC(=O)[C@H](Cc1ccccc1)NC(=O)c1cnccn1)B(O)O", "note": "[Form D of Formula V, [(1R)-3-methyl-1-[[(2S)-1-oxo-3-phenyl-2-[(pyrazinylcarbonyl)amino]propyl]amino]butyl] boronic acid]", "values": [
      {"measurement": "(S, S) and (R, R) diastereomer (%)", "setting": "1 month", "result": 0.046, "unit": "%"},
      {"measurement": "(S, S) and (R, R) diastereomer (%)", "setting": "1 week", "result": 0.068, "unit": "%"},
      {"measurement": "(S, S) and (R, R) diastereomer (%)", "setting": "2 month", "result": 0.039, "unit": "%"},
      {"measurement": "(S, S) and (R, R) diastereomer (%)", "setting": "2 week", "result": 0.042, "unit": "%"},
      {"measurement": "(S, S) and (R, R) diastereomer (%)", "setting": "3.5 month", "result": 0.048, "unit": "%"},
      {"measurement": "Stability (HPLC purity and crystalline form)", "setting": "3.5 months", "result": "maintained in a stable state without any change in HPLC purity and crystalline form"},
      {"measurement": "Purity (%)", "setting": "1 month", "result": 99.80, "unit": "%"},
      {"measurement": "Purity (%)", "setting": "1 week", "result": 99.61, "unit": "%"},
      {"measurement": "Purity (%)", "setting": "2 month", "result": 99.74, "unit": "%"},
      {"measurement": "Purity (%)", "setting": "2 week", "result": 99.87, "unit": "%"},
      {"measurement": "Purity (%)", "setting": "3.5 month", "result": 99.69, "unit": "%"}
    ]}
  ]
}
